Data published in patent US9067190B2, “Method for loading amphiphile particles with active agents” (CAMURUS AB, priority 2003, dated 2015).

Assays:
[1] = Effect of heat treatment on carrier-bound fraction of octreotide (loading system 3); type: physicochemical; settings: 200 μg/ml octreotide, 5% amphiphile analogue of loading system 3
Procedure: Octreotide at a concentration of 200 μg/ml was added to 5% amphiphile analogues of loading system 3 (water content 95%). One set of samples were equilibrated at room temperature for 1 day, while another set was autoclaved at 125° C. for 20 minutes. The ocreotide concentration was determined by HPLC using a size exclusion column coupled to a UV detector.

[2] = Higher loading of progesterone by heat treatment (GMO/oleic acid/Lutrol F127 cubic particles); type: physicochemical
Procedure: Pre-formulations were prepared, including the fatty acid oleic acid, by the following method. • a) An initial melt was prepared containing GMO (85.5%), oleic acid (4.5%) and Lutrol F127 (10%). To 9 g of water under mechanical stirring was added 1 g of the molten mixture to form a coarse dispersion. • b) The coarse dispersion was homogenised with a microfluidiser at 345 bar. • c) The dispersion was heated to 120° C. for 20 minutes and cooled to room temperature.
The steroid hormone progesterone was incubated with the cubic particles formed in steps a) to c), at room temperature. The equilibrium loading level was 3% by weight.
The above method was repeated by the active agent progesterone was included in the aqueous phase prior to the homogenisation and heat treatment steps. The loading level was again examined and established to be 18 wt %. The effect upon the particle size distribution was minimal.
The composition with 18 wt % progesterone generated above was stored at room temperature for 14 days.

Row | Structure (SMILES) | % bound octreotide ([1]; 1 day at room temperature) [%] | % bound octreotide ([1]; After Autoclavation 20 min (125° C.)) [%] | Effect upon the particle size distribution ([2]; heat treatment loading of progesterone) | Loading level ([2]; progesterone in aqueous phase prior to homogenisation and heat treatment (120° C., 20 minutes)) [wt %] | Equilibrium loading level ([2]; progesterone incubated with preformed cubic particles at room temperature) [% by weight]
1 | C[C@@H](O)[C@@H]1NC(=O)[C@H](CCCCN)NC(=O)[C@@H](Cc2c[nH]c3ccccc23)NC(=O)[C@H](Cc2ccccc2)NC(=O)[C@@H](NC(=O)[C@H](N)Cc2ccccc2)CSSC[C@@H](C(=O)N[C@H](CO)[C@@H](C)O)NC1=O [octreotide] | 18.07 | 30.04 | – | – | –
2 | CC(=O)[C@H]1CC[C@H]2[C@@H]3CCC4=CC(=O)CC[C@]4(C)[C@H]3CC[C@]12C [progesterone] | – | – | minimal | 18 | 3
